Laboratory results reported in patent US7119094B1, “Substituted polycyclic aryl and heteroarpyl pyrazinones useful for selective inhibition of the coagulation cascade” (Warner-Lambert Company, priority 2000, dated 2006).
Like-named read-outs stand apart in the source and are kept apart here.

Tests used:
[1] = target: T1, recombinant soluble tissue factor and recombinant human factor VIIa (TF-VIIa) (Homo sapiens, UniProt P08709); test: TF-VIIa Assay; format: biochemical
T1 construct: conversion of coagulation factor VII to VIIa by Xa; purchased American Diagnostica, Greenwich Conn; host or cells: factor VIIa purchased; soluble TF made in house in E. coli
T1 sequence (P08709 213-466 limits assumed): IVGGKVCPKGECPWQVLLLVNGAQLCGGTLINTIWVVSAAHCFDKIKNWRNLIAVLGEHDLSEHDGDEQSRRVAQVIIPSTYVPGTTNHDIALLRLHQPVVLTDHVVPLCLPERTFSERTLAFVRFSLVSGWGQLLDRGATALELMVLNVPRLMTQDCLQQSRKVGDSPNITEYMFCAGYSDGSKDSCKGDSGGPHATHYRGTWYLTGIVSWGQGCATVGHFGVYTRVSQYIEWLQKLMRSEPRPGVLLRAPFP
T1 sequence (P08709 61-212 limits assumed): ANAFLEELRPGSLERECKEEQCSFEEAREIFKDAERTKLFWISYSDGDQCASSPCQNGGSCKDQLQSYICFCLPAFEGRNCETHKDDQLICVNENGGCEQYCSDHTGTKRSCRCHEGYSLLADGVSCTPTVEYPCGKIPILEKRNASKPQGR
T1 sequence (P13726 33-251 partner limits assumed): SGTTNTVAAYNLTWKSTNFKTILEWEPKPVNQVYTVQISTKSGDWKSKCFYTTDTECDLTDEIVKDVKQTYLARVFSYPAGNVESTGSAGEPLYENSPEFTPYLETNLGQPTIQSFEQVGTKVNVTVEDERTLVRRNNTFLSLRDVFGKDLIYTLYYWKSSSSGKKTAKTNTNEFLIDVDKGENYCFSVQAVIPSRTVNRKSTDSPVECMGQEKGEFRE

[2] = target: T2, Trypsin (type 1× from porcine pancreas) (Sus scrofa, UniProt P00761); test: Trypsin Assay; format: biochemical
T2 construct: Trypsin (5 ug/ml; type 1× from porcine pancreas); purchased Sigma, St. Louis Mo; host or cells: porcine pancreas
T2 sequence (P00761 9-231): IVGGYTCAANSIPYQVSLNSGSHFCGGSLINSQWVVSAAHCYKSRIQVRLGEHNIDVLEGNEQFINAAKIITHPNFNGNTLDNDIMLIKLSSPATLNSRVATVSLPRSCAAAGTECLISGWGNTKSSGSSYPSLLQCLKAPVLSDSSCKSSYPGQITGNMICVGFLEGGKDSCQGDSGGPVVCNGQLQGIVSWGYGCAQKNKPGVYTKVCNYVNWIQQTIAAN

Row | SMILES | % Inhibition TF-VIIa (100 νM) ([1]; inhibitor at 100 νM) | % Inhibition Trpysin II (100 νM) ([2]; inhibitor at 100 νM) | % Inhibition TF-VIIa (100 νM) [1] | % Inhibition Trpysin II (100 νM) [2]
1 | COc1ccc(-c2c(Cl)nc(NCCc3ccc(Cl)cc3)c(=O)n2CC(=O)NCCc2ccncc2)cc1 [Example E-0036] | 0% | 0% |  | 
2 | O=C(Cn1c(-c2ccc(Cl)cc2)c(Cl)nc(NCCc2ccccc2)c1=O)NCCc1ccncc1 [Example E-0026] | 0% | 3% |  | 
3 | O=C(Cn1c(-c2ccc(-c3ccccc3)cc2)c(Cl)nc(NCc2ccccc2)c1=O)NCCc1ccncc1 [Example E-0049] |  |  | 2% | 0%
4 | O=C(Cn1c(-c2ccc(-c3ccccc3)cc2)c(Cl)nc(NCCc2ccccc2)c1=O)NCCc1ccncc1 [Example E-0050] |  |  | 0% | 0%
5 | O=C(Cn1c(-c2ccc3c(c2)OCO3)c(Cl)nc(NCCc2ccccc2)c1=O)NCCc1ccncc1 [Example E-0042] | 0% | 5% |  | 
6 | O=C(Cn1c(-c2ccc(Cl)cc2)c(Cl)nc(NCCc2ccncc2)c1=O)NCCc1ccncc1 [Example E-0022] | 0% | 2% |  | 
7 | COc1ccc(-c2c(Cl)nc(NCCc3ccccc3)c(=O)n2CC(=O)NCCc2ccncc2)cc1 [Example E-0034] | 0% | 3% |  | 
8 | COc1ccc(-c2c(Cl)nc(NCCN3CCOCC3)c(=O)n2CC(=O)NCCc2ccncc2)cc1 [Example E-0039] | 0% | 2% |  | 
9 | O=C(Cn1c(-c2ccc(Cl)cc2)c(Cl)nc(NCCc2ccccc2)c1=O)NCCc1ccncc1 [Example E-0018] | 1% | 4% |  | 
10 | O=C(Cn1c(-c2ccc(Cl)cc2)c(Cl)nc(NCCc2cccnc2)c1=O)NCCc1ccncc1 [Example E-0021] | 0% | 5% |  | 
11 | O=C(Cn1c(-c2ccc(-c3ccccc3)cc2)c(Cl)nc(NCCc2ccccc2)c1=O)NCCc1ccncc1 [Example E-0112] |  |  | 11% | 13%
12 | O=C(Cn1c(-c2ccc(Cl)cc2)c(Cl)nc(NCc2ccncc2)c1=O)NCCc1ccncc1 [Example E-0024] | 0% | 1% |  | 
13 | O=C(Cn1c(-c2ccccc2)c(Cl)nc(NCc2ccccc2)c1=O)NCCc1ccncc1 [Example E-0009] | 0% | 1% |  | 
14 | Cc1c(Cl)nc(NCCN2CCOCC2)c(=O)n1CC(=O)NCCc1ccncc1 [Example E-0007] | 0% | 0% |  | 
15 | O=C(Cn1c(-c2ccc(-c3ccccc3)cc2)c(Cl)nc(NCc2ccccc2)c1=O)NCCc1ccncc1 [Example E-0109] |  |  | 2% | 12%
16 | O=C(Cn1c(-c2ccc(Cl)cc2)c(Cl)nc(NCc2ccccc2)c1=O)NCCc1ccncc1 [Example E-0025] | 0% | 3% |  | 
17 | O=C(Cn1c(-c2ccc(Cl)cc2)c(Cl)nc(NCc2ccncc2)c1=O)NCCc1ccncc1 [Example E-0032] | 0% | 3% |  | 

Row | SMILES | % Inhibition TF-VIIa (100 νM) ([1]; inhibitor at 100 νM) | % Inhibition Trpysin II (100 νM) ([2]; inhibitor at 100 νM) | % Inhibition TF-VIIa (100 νM) [1] | % Inhibition Trpysin II (100 νM) [2]
18 | O=C(Cn1c(-c2ccc(Cl)cc2)c(Cl)nc(NCCc2cccc(Cl)c2)c1=O)NCCc1ccncc1 [Example E-0019] | 0% | 2% |  | 
19 | Cc1c(Cl)nc(NCCc2cccnc2)c(=O)n1CC(=O)NCCc1ccncc1 [Example E-0005] | 0% | 0% |  | 
20 | O=C(Cn1c(-c2ccccc2)c(Cl)nc(NCCc2ccc(Cl)cc2)c1=O)NCCc1ccncc1 [Example E-0012] | 0% | 0% |  | 
21 | O=C(Cn1c(Cc2ccccc2)c(Cl)nc(NCCc2cccc(Cl)c2)c1=O)NCCc1ccncc1 [Example E-0059] | 0% | 0% |  | 
22 | O=C(Cn1c(-c2ccc(Cl)cc2)c(Cl)nc(NCCc2cccnc2)c1=O)NCCc1ccncc1 [Example E-0029] | 0% | 2% |  | 
23 | O=C(Cn1c(-c2ccc3c(c2)OCO3)c(Cl)nc(NCCc2cccc(Cl)c2)c1=O)NCCc1ccncc1 [Example E-0043] | 0% | 3% |  | 
24 | O=C(Cn1c(-c2ccccc2)c(Cl)nc(NCCc2cccc(Cl)c2)c1=O)NCCc1ccncc1 [Example E-0011] | 0% | 0% |  | 
25 | Cc1c(Cl)nc(NCCc2cccc(Cl)c2)c(=O)n1CC(=O)NCCc1ccncc1 [Example E-0003] | 0% | 0% |  | 
26 | O=C(Cn1c(-c2ccc3c(c2)OCO3)c(Cl)nc(NCCc2ccncc2)c1=O)NCCc1ccncc1 [Example E-0046] | 0% | 4% |  | 
27 | Cc1c(Cl)nc(NCc2ccccc2)c(=O)n1CC(=O)NCCc1ccncc1 [Example E-0001] | 0% | 0% |  | 
28 | O=C(Cn1c(-c2ccc3c(c2)OCO3)c(Cl)nc(NCCc2cccnc2)c1=O)NCCc1ccncc1 [Example E-0045] | 0% | 4% |  | 
29 | COc1ccc(-c2c(Cl)nc(NCCc3ccncc3)c(=O)n2CC(=O)NCCc2ccncc2)cc1 [Example E-0038] | 0% | 3% |  | 
30 | O=C(Cn1c(-c2ccc(Cl)cc2)c(Cl)nc(NCCc2ccc(Cl)cc2)c1=O)NCCc1ccncc1 [Example E-0020] | 0% | 4% |  | 
31 | COc1ccc(-c2c(Cl)nc(NCCc3cccnc3)c(=O)n2CC(=O)NCCc2ccncc2)cc1 [Example E-0037] | 0% | 2% |  | 
32 | O=C(Cn1c(-c2ccccc2)c(Cl)nc(NCCc2cccnc2)c1=O)NCCc1ccncc1 [Example E-0013] | 0% | 1% |  | 
33 | O=C(Cn1c(-c2ccc(Cl)cc2)c(Cl)nc(NCCc2ccncc2)c1=O)NCCc1ccncc1 [Example E-0030] | 0% | 4% |  | 
34 | O=C(Cn1c(-c2ccc(Cl)cc2)c(Cl)nc(NCCc2ccc(Cl)cc2)c1=O)NCCc1ccncc1 [Example E-0028] | 0% | 3% |  | 

Further lines, with some results ahead:

Row | % Inhibition TF-VIIa (100 νM) ([1]; inhibitor at 100 νM) | % Inhibition Trpysin II (100 νM) ([2]; inhibitor at 100 νM) | SMILES | % Inhibition TF-VIIa (100 νM) [1] | % Inhibition Trpysin II (100 νM) [2]
35 | 0% | 0% | O=C(Cn1c(CCc2ccccc2)c(Cl)nc(NCCc2ccccc2)c1=O)NCCc1ccncc1 [Example E-0066] |  | 
36 | 2% | 7% | O=C(Cn1c(-c2cccc(Cl)c2)c(Cl)nc(NCCc2ccc(Cl)cc2)c1=O)NCCc1ccncc1 [Example E-0094] |  | 
37 | 0% | 6% | O=C(Cn1c(-c2cccc(Cl)c2)c(Cl)nc(NCc2ccccc2)c1=O)NCCc1ccncc1 [Example E-0073] |  | 
38 | 0% | 0% | O=C(Cn1c(CCc2ccccc2)c(Cl)nc(NCCc2cccc(Cl)c2)c1=O)NCCc1ccncc1 [Example E-0067] |  | 
39 | 5% | 9% | COc1ccc(-c2c(Cl)nc(NCCc3ccc(Cl)cc3)c(=O)n2CC(=O)NCCc2ccncc2)cc1 [Example E-0106] |  | 
40 | 0% | 7% | O=C(Cn1c(-c2cccc(Cl)c2)c(Cl)nc(NCCc2ccccc2)c1=O)NCCc1cccnc1 [Example E-0077] |  | 
41 | 0% | 8% | O=C(Cn1c(-c2cccc(Cl)c2)c(Cl)nc(NCc2ccccc2)c1=O)NCCc1cccnc1 [Example E-0074] |  | 
42 | 0% | 9% | O=C(Cn1c(-c2cccc(Cl)c2)c(Cl)nc(NCc2ccccc2)c1=O)NCCc1ccncc1 [Example E-0085] |  | 
43 | 0% | 11% | O=C(Cn1c(-c2cccc(Cl)c2)c(Cl)nc(NCCc2cccc(Cl)c2)c1=O)NCCc1ccncc1 [Example E-0079] |  | 
44 | 0% | 0% | O=C(Cn1c(CCc2ccccc2)c(Cl)nc(NCCc2cccnc2)c1=O)NCCc1ccncc1 [Example E-0069] |  | 
45 | 0% | 0% | O=C(Cn1c(CCc2ccccc2)c(Cl)nc(NCCc2ccncc2)c1=O)NCCc1ccncc1 [Example E-0070] |  | 
46 | 2% | 6% | O=C(Cn1c(-c2cccc(Cl)c2)c(Cl)nc(NCCc2ccc(Cl)cc2)c1=O)NCCc1cccnc1 [Example E-0083] |  | 
47 | 0% | 0% | O=C(Cn1c(Cc2ccccc2)c(Cl)nc(NCCc2cccnc2)c1=O)NCCc1ccncc1 [Example E-0061] |  | 
48 | 0% | 10% | O=C(Cn1c(-c2cccc(Cl)c2)c(Cl)nc(NCCc2ccccc2)c1=O)NCCc1ccncc1 [Example E-0076] |  | 
49 | 0% | 0% | O=C(Cn1c(CCc2ccccc2)c(Cl)nc(NCCN2CCOCC2)c1=O)NCCc1ccncc1 [Example E-0071] |  | 
50 | 0% | 0% | O=C(Cn1c(Cc2ccccc2)c(Cl)nc(NCCc2ccc(Cl)cc2)c1=O)NCCc1ccncc1 [Example E-0060] |  | 
51 | 3% | 9% | COc1ccc(-c2c(Cl)nc(NCCc3cccc(Cl)c3)c(=O)n2CC(=O)NCCc2cccnc2)cc1 [Example E-0104] |  | 
52 | 2% | 9% | O=C(Cn1c(-c2cccc(Cl)c2)c(Cl)nc(NCCc2ccc(Cl)cc2)c1=O)NCCc1cccnc1 [Example E-0095] |  | 
